Counter-ions that a name gives are not always drawn.
What was measured:
[1] = tested on: tetrabenazine induced ptosis; assay: Tetrabenazine ptosis antagonism; type: in vivo; details: Mus musculus, ip, 0.5 h; i.p., mice; tetrabenazine 40 mg/kg i.p. 30 min after test substance
Protocol: For insoluble substances the doses 0, 1/8, 1/32 and 1/128 of "i.^p. LD50" are used. 3 mice are used for each dose level. Thirty minutes after administration of test substance, tetrabenazine, 40 mg/kg, is injected i.p. Ptosis is evaluated 30 minutes after administration of tetrabenazine, the following rating scale being used: 0 = normal eyes, 1=1/4 closed eyes, 2 = 1/2 closed eyes, 3 = 3/4 closed eyes and 4 = completely closed eyes. Ptosis is evaluated 30 seconds after tilting the cage 3 times. The tilting is carried out in such a way that the animals slide along the floor of the cage.
The results are recorded as % inhibition of ptotic score calculated on the basis of the score of the control group. If ptotic score for the control group is < 10 the test is rejected and another is performed. The registration can also be done as an on line procedure.

[2] = tested on: potentiation of 5-HTP; assay: 5-HTP potentiation (5-HTP syndrome); type: in vivo; details: Mus musculus, ip, 0.5 h; i.p., mice; 5-HTP 100 mg/kg i.v. 30 min after test substance; read-out: 5-HTP potentation,ED50
Protocol: The test substance is given i.p. or p.o. in the doses 10, 10, 2.5, 0.63 and 0 mg/kg. Three mice are used for each dose level. One of the groups on the highest dose is used as control of the compounds own effect. […] Thirty minutes after administration of test substance, 5-HTP, 100 mg/kg i.v. is given (injection time 5-10 sec.). After this 5-HTP dose the animals remain unaffected. If the animals have been pretreated with a substance, which inhibits the re-uptake of 5-HT, a 5-HTP syndrome will occur. This is characterized by the following symptoms: 1) excitation, 2) tremor, and 3) abduction of the hind limbs.
After the administration of 5-HTP the animals are observed for 15 minutes and each animal is given one point for each symptom present. Thus, the maximal score for a group consisting of 3 mice is 9.
The results are stated as fractions: 0/9, 1/9, 2/9 ..... 8/9, 9/9, where 0, 1, 2 ..... 8, 9 are the number of points per group after the dose in question.

| SMILES | ED50 [1] [µmol/kg] | ED50 [2] [µmol/kg] |
| --- | --- | --- |
| CN(C)[C@@H]1C[C@@H](c2ccc(F)cc2)c2ccc(F)cc21 (relative stereo) [Lu 13-114-c] | 28 | > 130 |
| CN(C)[C@@H]1C[C@@H](c2ccc(F)cc2)c2ccc(C(F)(F)F)cc21 (relative stereo) [Lu 18-047-c] | 166 |  |
| CN(C)[C@@H]1C[C@@H](c2ccc(Cl)c(Cl)c2)c2ccccc21 (relative stereo) [Lu 18-118] | 83 | 5 |
| CN(C)[C@@H]1C[C@@H](c2ccc(Cl)cc2Cl)c2ccccc21 (relative stereo) [Lu 18-136-c] | 23 | 19 |
| CCN(CC)[C@@H]1C[C@@H](c2ccc(Cl)c(Cl)c2)c2ccccc21 (relative stereo) [Lu 18-187-c] | 52 | 19 |
| CN[C@@H]1C[C@@H](c2ccc(Cl)c(Cl)c2)c2ccccc21 (relative stereo) [Lu 19-005-c, trans-N-methyl-3-(3',4'-dichlorophenyl)-I-indanamine] |  | 6.7 |
| CN[C@@H]1C[C@H](c2ccc(Cl)c(Cl)c2)c2ccccc21 (relative stereo) [Lu 19-006-c, cis-N-methyl-3-(3',4'-dichlorophenyl)-1-indanamine] | 5.8 |  |
| CN(C)[C@@H]1C[C@@H](c2ccc(F)cc2)c2ccccc21 (relative stereo) [Lu 19-007-c] | 7.8 | 45 |
| CN(C)[C@@H]1C[C@@H](c2ccccc2)c2ccccc21 (relative stereo) [Lu 19-026-c, reference compound] | 17 | > 35 |
| CCN[C@@H]1C[C@@H](c2ccc(Cl)c(Cl)c2)c2ccccc21 (relative stereo) [Lu 19-040-c] | > 7 | 26 |
| CCCN(CCC)[C@@H]1C[C@@H](c2ccc(Cl)c(Cl)c2)c2ccccc21 (relative stereo) [Lu 19-042-c] | > 25 | > 100 |
| CCCN(CCC)[C@@H]1C[C@H](c2ccc(Cl)c(Cl)c2)c2ccccc21 (relative stereo) [Lu 19-043-c] | > 100 | > 100 |
| CN(C)[C@@H]1C[C@@H](c2ccc(Br)cc2)c2ccccc21 (relative stereo) [Lu 19-056] | 10 | 8 |
| CN(C)[C@@H]1C[C@H](c2ccc(Br)cc2)c2ccccc21 (relative stereo) [Lu 19-057] | 3.9 | 12 |
| CN(C)[C@@H]1C[C@@H](c2ccc(C#N)cc2)c2ccc(F)cc21 (relative stereo) [Lu 19-070-c] | 45 | 25 |
| Clc1ccc([C@@H]2C[C@@H](NCc3ccccc3)c3ccccc32)cc1Cl (relative stereo) [Lu 19-071-c] | > 25 | > 25 |
| OCCN[C@@H]1C[C@@H](c2ccc(Cl)c(Cl)c2)c2ccccc21 (relative stereo) [Lu 19-074-c] | 75 | 270 |
| Clc1ccc([C@@H]2C[C@@H](NCCc3ccccc3)c3ccccc32)cc1Cl (relative stereo) [Lu 19-078-c] | 33 | 142 |
| OCCN(CCO)[C@@H]1C[C@@H](c2ccc(Cl)c(Cl)c2)c2ccccc21 (relative stereo) [Lu 19-082-c] | 104 | > 99 |
| CN[C@@H]1C[C@@H](c2ccc(F)cc2)c2ccc(F)cc21 (relative stereo) [Lu 19-097-c] |  | 94 |
| CN[C@@H]1C[C@@H](c2ccc(F)c(F)c2)c2ccccc21 (relative stereo) [Lu 19-098-c] |  | 22 |
| CN[C@@H]1C[C@@H](c2ccc(Cl)c(Cl)c2)c2ccccc21 (single isomer, unassigned) [Lu 20-042-c, (+) trans N-methyl-3-(3,4-dichlorophenyl)-1-indanamine, hydrochloride] | 7.6 |  |
| CNC1CC(c2ccc(Cl)c(Cl)c2)c2ccccc21 (single isomer, unassigned; (-)) [Lu 20-043-c, (-) trans N-methyl-3-(3,4-dichlorophenyl)-1-indanamine, hydrochloride] |  | 16 |

Reference: patent EP0076669A1, “Novel 3-phenyl-1-indanamines, pharmaceutical compositions and methods of preparation” (KEFALAS A/S, priority 1981, dated 1983)
